Source: US20020054880A1, “Anti-inflammatory, tolerogenic and immunoinhibiting properties of carbohydrate binding-peptides” (priority 1992, published 2002)
Where two headings read alike, the source gives them in different places.

Experiments:
[1] = biological target: αNeuAc(2-3)βGal(1-3)βGlcNAc-BSA (1-4) αFuc (Bos taurus, UniProt P02769); settings: SLe^a(C19.9); conjugate 50 μg/mL; 0.5 μg SPYGRC-b, 1 hour
Method: (§1) Binding assays were carried out essentially as described above using microtiter wells that were coated with 50 μl of BSA glycoconjugate (50 μg/ml) in 50 mM sodium phosphate buffer (pH 6.8) containing 5 mM MgCl2 nd 15 mM NaN3 for 16 hours at 4° C. The solution was removed by aspiration and replaced with 100 μl of 1% BSA in PBS containing 0.05% Tween 20 (PBST) and incubated at room temperature for an additional 2-3 hours. […] After incubating for 1 hour, the binding reaction was stopped by aspirating the solutions and the plate was washed with PBST (4×300 μl). Avidin-peroxidase (100 μl of a 1/3000 dilution of a 1 mg/ml solution in PBST) was added and incubated for an additional 1 hour. After washing the wells as described above, the substrate solution (1 mM ABTS in 5 mM citrate buffer, pH 4.2, containing 0.1% hydrogen peroxide, v/v) was added and the plates were incubated for 30 minutes. Binding assays for each BSA conjugate were done in triplicate and background binding was measured in wells coated with BSA only.

[2] = biological target: αNeuAc(2-3)βGal(1-3)βGlcNAc-BSA (Bos taurus, UniProt P02769); settings: SLe^c; conjugate 50 μg/mL; 0.5 μg SPYGRC-b, 1 hour
Method: as §1

[3] = biological target: αNeuAc(2-3)βGal(1-4)βGlcNAc-BSA (1-3) αFuc (Bos taurus, UniProt P02769); settings: SLe^x; conjugate 50 μg/mL; 0.5 μg SPYGRC-b, 1 hour
Method: as §1

[4] = biological target: αNeuAc(2-3)βGal(1-4)βGlcNAc-BSA (Bos taurus, UniProt P02769); settings: conjugate 50 μg/mL, 0.5 μg SPYGRC-b, 1 hour
Method: as §1

[5] = biological target: T1, PT-biotin binding to fetuin (Bos taurus, UniProt P12763); experiment: PT-biotin binding to fetuin, binding inhibition assay; parameters: species or system Bordetella pertussis; settings: + enhancement, − inhibition
T1 construct: purchased Sigma Chemical Company (fetuin); Connaught Center for Biotechnology Research (PT)
T1 sequence (P12763 19-359): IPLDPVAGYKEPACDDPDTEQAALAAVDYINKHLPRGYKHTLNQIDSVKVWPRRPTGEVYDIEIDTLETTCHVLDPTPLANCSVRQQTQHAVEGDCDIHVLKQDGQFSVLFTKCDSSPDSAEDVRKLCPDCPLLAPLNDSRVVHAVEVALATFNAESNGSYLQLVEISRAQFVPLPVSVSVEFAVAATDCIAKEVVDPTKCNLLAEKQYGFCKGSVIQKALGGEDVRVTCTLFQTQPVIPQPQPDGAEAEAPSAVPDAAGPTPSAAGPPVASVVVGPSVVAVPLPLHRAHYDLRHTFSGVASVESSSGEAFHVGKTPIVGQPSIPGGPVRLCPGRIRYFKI
Method: (§2) Peptides ranging in concentration from 0.5 to 4.5 mg/ml in PBS (40 μl) were added to each well and PT-biotin (10 μl containing 10 ng in PBS) was then added to the microtiter wells. […] Horseradish peroxidase-conjugated avidin (100 μl, 1/3000 dilution in PBST to a concentration of 0.3 μg/ml) was then added to the wells, and the plates were incubated at ambient temperature for 1 hour. […] Color development was recorded at 405 nm using a Titertek Multiskan MC plate reader. […] Binding assays for each peptide were done in duplicate. Binding inhibition experiments utilizing SNA-, WGA-, and MAL-biotin were performed as described above using 10 ng of each biotinylated lectin in PBS.
(§3) Binding assays for each inhibitor concentration were done at least in duplicate, and the average value varied less than 15%.

[6] = biological target: T2, MAL-biotin binding to fetuin (Bos taurus, UniProt P12763); experiment: MAL-biotin binding to fetuin, binding inhibition assay; parameters: species or system Maackia amurensis; settings: + enhancement, − inhibition
T2 construct: purchased Sigma Chemical Company (fetuin); Boehringer Mannheim (MAL-biotin)
T2 sequence (P12763 19-359): T1 sequence (P12763 19-359)
Method: as §2, §3

[7] = biological target: T3, SNA-biotin binding to fetuin (Bos taurus, UniProt P12763); experiment: biochemical; settings: + enhancement, − inhibition
T3 sequence (P12763 19-359): T1 sequence (P12763 19-359)
Method: (§4) The solution was removed by aspiration and replaced with 100 μl of 1% BSA in PBS containing 0.05% Tween 20 (PBST). After incubation for 2-4 hours at room temperature, the microtiter wells were washed four times with 300 μl of PBST. Peptides ranging in concentration from 0.5 to 4.5 mg/ml in PBS (40 μl) were added to each well and PT-biotin (10 μl containing 10 ng in PBS) was then added to the microtiter wells. After incubating for 1 hour, the binding reaction was stopped by aspirating the solutions and the plate was washed with PBST (300 μl). Horseradish peroxidase-conjugated avidin (100 μl, 1/3000 dilution in PBST to a concentration of 0.3 μg/ml) was then added to the wells, and the plates were incubated at ambient temperature for 1 hour. After washing the wells as described above, the substrate solution [1 mM ABTS in 5 mM citrate buffer, pH 4.2, containing 0.1% hydrogen peroxide, v/v) was added and the plates were incubated for 30 minutes. Color development was recorded at 405 nm using a Titertek Multiskan MC plate reader. Maximum binding was determined in the absence of peptide, and background binding was measured in wells coated with BSA only. Binding assays for each peptide were done in duplicate. Binding inhibition experiments utilizing SNA-, WGA-, and MAL-biotin were performed as described above using 10 ng of each biotinylated lectin in PBS.

[8] = biological target: T4, WGA-biotin binding to fetuin (Bos taurus, UniProt P12763); experiment: biochemical; settings: + enhancement, − inhibition
T4 sequence (P12763 19-359): T1 sequence (P12763 19-359)
Method: as §4

[9] = biological target: T5, PT-biotin binding to asialofetuin (Bos taurus, UniProt P12763); experiment: PT-biotin binding to asialofetuin, binding inhibition assay; parameters: species or system Bordetella pertussis; settings: peptide mg/mL: S2PL 1.2, ACS2P1 1.0, S2P2 1.1, S2P3 0.51, S2P4 0.98, S2P6 0.85, S3P1 3.2, S3P2 3.1, S3P3 4.5, S3P4 3.3, S3P5 0.48, SPYGRC 4.4; + enhancement, − inhibition
T5 construct: made in house
T5 sequence (P12763 19-359): T1 sequence (P12763 19-359)
Method: as §2, §3

[10] = biological target: T6, ACS2P1-biotin binding to fetuin (Bos taurus, UniProt P12763); experiment: biochemical; settings: peptide μM: ACS2P1 4.1, S2P2 42.5, SPYGRC 5520, S2P3 22.4, S2P4 6.0, S2P6 319, S3P1 1142, S3P2 934, S3P3 16.1, S3P4 6.4, S3P5 22.5; ACS2P1-biotin 0.1 μg; − inhibition, + enhancement
T6 construct: purchased Sigma Chemical Company
T6 sequence (P12763 19-359): T1 sequence (P12763 19-359)

[11] = biological target: T7, ACS2P1-biotin binding to asialofetuin (Bos taurus, UniProt P12763); experiment: Screening of S2 and S3 peptides for inhibition of ACS2P1-biotin binding to asialofetuin; settings: peptide μM: ACS2P1 4.1, S2P2 42.5, SPYGRC 5520, S2P3 22.4, S2P4 6.0, S2P6 319, S3P1 1142, S3P2 934, S3P3 16.1, S3P4 6.4, S3P5 22.5; ACS2P1-biotin 0.1 μg; − inhibition, + enhancement
T7 construct: made in house
T7 sequence (P12763 19-359): T1 sequence (P12763 19-359)

[12] = test system: pertussis toxin binding to Chinese Hamster ovary (CHO) cell; experiment: CHO cell neutralization of pertussis toxin (cell clumping); assay type: cell-based; settings: PT 2.4 ng/ml, peptide and PT 1 hour, triplicate
Method: Confluent monolayers of CHO cells were lifted from plastic tissue culture flasks with 0.25% trypsin and suspended at a concentration of 5×10^4 cells/ml in Ham's F12 media containing 10% fetal bovine serum (FBS). 100 μl of the cell suspension was added to 96 well tissue culture plates and were allowed to establish contact with the plastic for 24 to 48 hours. The expended media was then removed and filtered-sterilized peptide 5-fold dilutions ranging in concentration from 300 to 30 femptogram per ml (80 μl) in Ham' F12 media containing FBS were added to the CHO cells. […] The incubation mixtures were gently mixed and incubated at 37° C. for 1 hour in a CO2 incubator. The incubation mixtures were then removed and replaced with fresh media. The tissue culture plates were then incubated for 24 hours at 37° C., fixed with 100% methanol, and stained with Geimsa stain. Control experiments were done in the absence of peptide alone or in the absence of PT. All determinations were done in triplicate. […] The results reported in Table VIII show the maximum peptide concentration required to cause a 50% reduction in CHO cell clumping.

[13] = test system: Balb/c mice; experiment: DTH inflammatory response, mouse footpad swelling assay; assay type: in vivo; settings: 100 μg peptide into the tail vein 5 hours after challenge with 20 μg OVA; FIG. 2
Method: DTH inflammatory responses were measured using the mouse footpad swelling assay as described by Smith and Ziola^64. Briefly, groups of Balb/c mice (about 19-20 grams each) were immunized with 100 μg of the OVA antigen containing 20μg of the adjuvant (DDA—dimethyl-dioctadecylammonium bromide) which also induces a strong inflammatory DTH response. Seven days later, each group of mice was footpad-challenged with 20 μg of the OVA antigen (without adjuvant). The resulting inflammatory footpad swelling was measured with a Mitutoyo Engineering micrometer 24 hours after challenge.
To assess the effect of different peptides on the inflammatory DTH response, groups of mice received 100 μg of the following peptides- ACS2P1 (2275), SPYGRC (2283), and S3P9a. These peptides were injected as a solution into the tail vein, 5 hours after challenge. Control groups were left untreated or received 100 μL of phosphate-buffered saline (PBS).

[14] = test system: Balb/c mice; experiment: Persistence of suppression of DTH response on OVA re-challenge at 2 weeks; assay type: in vivo; settings: mice treated as in Example 11, re-challenged at 2 weeks; FIG. 3
From the text: Identical groups of mice treated with the peptides in Example 11 above, were re-challenged with OVA antigen 2 weeks after primary immunization.

[15] = peptide mg/mL: S2PL 1.2, ACS2P1 1.0, S2(14-2.3) 1.0, S2P2 1.1, S2P3 0.51, S2P4 0.98, S2P6 0.85, S3P1 3.2, S3P2 3.1, S3P3 4.5, S3P4 3.3, S3P5 0.48, S3P9a 1.7, SPYGRC 4.4, S2(WGA) 1.0, WGA (62-73) 1.0

Chain of αNeuAc(2-3)βGal(1-4)βGlcNAc-BSA (P02769 25-607): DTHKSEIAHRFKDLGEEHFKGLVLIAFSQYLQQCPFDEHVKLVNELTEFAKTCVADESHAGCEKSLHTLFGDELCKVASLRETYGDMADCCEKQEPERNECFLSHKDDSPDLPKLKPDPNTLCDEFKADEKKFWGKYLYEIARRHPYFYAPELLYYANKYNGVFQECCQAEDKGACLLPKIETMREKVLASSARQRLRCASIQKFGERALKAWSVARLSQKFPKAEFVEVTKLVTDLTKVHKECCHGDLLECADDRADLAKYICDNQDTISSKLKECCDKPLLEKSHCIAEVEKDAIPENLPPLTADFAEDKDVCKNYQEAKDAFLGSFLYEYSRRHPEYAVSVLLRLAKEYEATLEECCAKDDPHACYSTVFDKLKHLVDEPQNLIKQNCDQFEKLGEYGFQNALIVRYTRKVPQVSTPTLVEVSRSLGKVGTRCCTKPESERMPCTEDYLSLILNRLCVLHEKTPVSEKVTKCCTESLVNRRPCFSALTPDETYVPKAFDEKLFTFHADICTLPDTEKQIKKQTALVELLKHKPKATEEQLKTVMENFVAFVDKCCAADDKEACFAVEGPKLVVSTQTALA
Chain of αNeuAc(2-3)βGal(1-3)βGlcNAc-BSA (1-4) αFuc (P02769 25-607): as above
Chain of αNeuAc(2-3)βGal(1-4)βGlcNAc-BSA (1-3) αFuc (P02769 25-607): as above
Chain of αNeuAc(2-3)βGal(1-3)βGlcNAc-BSA (P02769 25-607): as above

## BIOTIN-SPYGRC-CO—NH2 [SPYGRC-b]
[1]
  % Binding Relative to Fetuin of SPYGRC-b (n = 3): 103 ± 8%
[2]
  % Binding Relative to Fetuin of SPYGRC-b (n = 3): 97 ± 12%
[3]
  % Binding Relative to Fetuin of SPYGRC-b (n = 3): 120 ± 4%
[4]; SLacNAc (table row r10)
  % Binding Relative to Fetuin of SPYGRC-b (n = 3): 120 ± 7%
[4]; SLacNAc (table row r12)
  % Binding Relative to Fetuin of SPYGRC-b (n = 3): 122 ± 5%

## SPYGRC-CO—NH2
[5]; SPYGRC peptide 4.4 mg/ml
  % Changes in Binding Activity, PT-b to fetuin: +34 ± 2%
[5]; [15]
  Percent Changes in Binding Activity PT/fetuin: +34 ± 2%
[6]; SPYGRC peptide 4.4 mg/ml
  % Changes in Binding Activity, MAL-5 to fetuin: −16 ± 0%
[6]; [15]
  Percent Changes in Binding Activity MAL/fetuin: −16 ± 0%
[7]; SPYGRC peptide 4.4 mg/ml
  % Changes in Binding Activity, SNA-b to fetuin: −2 ± 1%
[7]; [15]
  Percent Changes in Binding Activity SNA/fetuin: −2 ± 2%
[8]; SPYGRC peptide 4.4 mg/ml
  % Changes in Binding Activity, WGA-b to fetuin: +7 + 3%
[8]; peptide mg/mL: S2PL 1.2, ACS2P1 1.0, S2(14-2.3) 1.0, S2P2 1.1, S2P3 0.51, S2P4 0.98, S2P6 0.85, S3P1 3.2, S3P2 3.1, S3P3 4.5, S3P4 3.3, S3P5 0.48, SPYGRC 4.4, S2(WGA) 1.0, WGA (62-73) 1.0
  Percent Changes in Binding Activity WGA/fetuin: +7 ± 3%
[9]
  Percent Changes in Binding Activity PT/asialo-fetuin: +7 ± 9%
[10]
  Percent Change in Binding Activity Fetuin: −24 ± 2%
[11]
  Percent Change in Binding Activity Asialofetuin: −54 ± 3%
[12]
  Maximal Inhibitory Concentration for Greater than 50% Inhibition: 480 pg/mL
[13]
  effect on DTH inflammatory response (footpad swelling 24 hours after challenge), in words: effective in reducing a DTH response in mice
[14]
  DTH response (footpad swelling) on later re-challenge with OVA antigen, in words: reduced immune response
